This is an account of results in patent US11999794B2, “Human mesothelin chimeric antigen receptors and uses thereof” (Novartis AG, priority 2013, dated 2024).

Entries after “also recorded” stand apart in the source; their conditions may differ.

The subject of data set [1] is A/H1N1/California/07/2009. Put plainly: Anti-influenza IgG and IgM levels in serum. The data set is classed as in vivo, human. The conditions noted are these: vs placebo cohorts. As for the experimental part:
The trial was observer-blind because the placebo in the RAD001 0.5 mg daily and 20 mg weekly cohorts differed slightly from the RAD001 tablets in those cohorts. […] The treatment duration for all cohorts was 6 weeks during which time subjects underwent safety evaluations in the clinic every 2 weeks. After subjects had been dosed for 4 weeks, RAD001 steady state levels were measured pre-dose and at one hour post dose. […] Antibody titers to the 3 influenza vaccine strains as well as to 2 heterologous strains (A/H1N1 strain A/New Jersey/8/76 and A/H3N2 strain A/Victoria/361/11) were measured by standard hemagglutination inhibition assay (Kendal, A P et al. (1982) Concepts and procedures for laboratory-based influenza surveillance. Atlanta: Centers for Disease Control and Prevention B17-B35). Levels of IgG and IgM specific for the A/H1N1/California/07/2009 were measured in serum samples taken before and 4 weeks after influenza vaccination as described previously (Spensieri, F. et al. (2013) Proc. Natl. Acad. Sci. USA 110:14330-14335). Results were expressed as fluorescence intensity.

Data set [2] concerns the target T1, hMSLN296-588 (Homo sapiens, UniProt Q13421, N388Q/N488Q/N515Q).
T1 construct: secretion signal […]; made in house; host or cells: Expi293 (alone, or co-expressed with scFv M5)
Put plainly: Hydrogen-deuterium exchange mass spectrometry epitope mapping. The data set is classed as binding. The conditions noted are these: amino acid position 297 to 464. The source says:
Hydrogen-deuterium exchange (HDx) in combination with mass spectrometry (MS) (Woods V L, Hamuro Y (2001) High Resolution, High-Throughput Amide Deuterium Exchange-Mass Spectrometry (DXMS) Determination of Protein Binding Site Structure and Dynamics: Utility in Pharmaceutical Design. J. Cell. Biochem. Supp.; 84(37): 89-98.) was used to map the putative binding site of scFv antibodies M5 and SS1 on human mesothelin(296-588), referred to herein as hMSLN296-588 (SEQ ID No 278). In HDx, exchangeable amide hydrogens of proteins are replaced by deuterium. This process is sensitive to protein structure/dynamics and solvent accessibility and, therefore, able to report on locations that undergo a decrease in deuterium uptake upon ligand binding.
HDx/MS experiments were performed using methods similar to those described in the literature (Chalmers M J, Busby S A, Pascal B D, He Y, Hendrickson C L, Marshall A G, Griffin P R (2006) Probing protein ligand interactions by automated hydrogen/deuterium exchange mass spectrometry. Anal. Chem.; 78(4): 1005-1014.Chalmers, 2006). The experiments were performed on a Waters HDx/MS platform, which included a LEAP autosampler, nanoACQUITY UPLC, and Synapt G2 mass spectrometer. […]

T1 sequence (Q13421 with tags, fused parts or gaps N388Q/N488Q/N515Q): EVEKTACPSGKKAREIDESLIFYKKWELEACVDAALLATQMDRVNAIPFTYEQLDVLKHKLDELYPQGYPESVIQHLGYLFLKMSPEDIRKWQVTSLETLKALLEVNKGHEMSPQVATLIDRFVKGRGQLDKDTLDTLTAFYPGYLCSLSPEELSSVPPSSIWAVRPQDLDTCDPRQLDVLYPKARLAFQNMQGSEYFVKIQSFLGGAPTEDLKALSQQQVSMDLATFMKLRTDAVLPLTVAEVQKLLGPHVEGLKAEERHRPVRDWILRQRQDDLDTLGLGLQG

As to `CO[C@H]1C[C@@H]2CC[C@@H](C)[C@@](O)(O2)C(=O)C(=O)N2CCCC[C@H]2C(=O)O[C@H]([C@H](C)C[C@@H]2CC[C@@H](OCCO)[C@H](OC)C2)CC(=O)[C@H](C)/C=C(\C)[C@@H](O)[C@@H](OC)C(=O)[C@H](C)C[C@H](C)/C=C/C=C/C=C/1C` [RAD001, (1R,9S,12S,15R,16E,18R,19R,21R,23 S,24E,26E,28E,30S,32S,35R)-1,18-dihydroxy-12-{(1R)-2-[(1 S,3R,4R)-4-(2-hydroxyethoxy)-3-methoxycyclohexyl]-1-methylethyl}-19,30-dimethoxy-15,17,21,23,29,35-hexamethyl-11,36-dioxa-4-aza-tricyclo[30.3.1.04,9]hexatriaconta-16,24,26,28-tetraene-2,3,10,14,20-pentaone], the “post-vaccination anti-influenza IgM and IgG levels” value in data set [1] is listed as “No significant difference; also recorded: did not differ”.

B1: M5: human anti-mesothelin scFv SEQ ID NO: 43; full CAR SEQ ID NO: 67 (protein)
scFv: QVQLVQSGAEVEKPGASVKVSCKASGYTFTDYYMHWVRQAPGQGLEWMGWINPNSGGTNYAQKFQGRVTMTRDTSISTAYMELSRLRSDDTAVYYCASGWDFDYWGQGTLVTVSSGGGGSGGGGSGGGGSGGGGSDIVMTQSPSSLSASVGDRVTITCRASQSIRYYLSWYQQKPGKAPKLLIYTASILQNGVPSRFSGSGSGTDFTLTISSLQPEDFATYYCLQTYTTPDFGPGTKVEIK
For B1, the “mesothelin peptides significantly protected from deuterium uptake” value in data set [2] is listed as “no protection”.
